Measurements published in US9885088B2, “Rapid phenotypic diagnosis of pathogens and drug resistance using transcriptional expression signatures” (priority 2010, dated 2018).
“Also recorded” adds a separate entry of the source.

Assays:
[1] = tested on: M. tuberculosis; assay: microbe, parasite or virus in culture; format: cell-based
[2] = tested on: M. tuberculosis; format: cell-based

Row | SMILES | Sensitive (S) or Resistant (R) [1] | increase in minimal inhibitory concentration (MIC) [1] [fold] | increase in the MIC [1] [fold] | minimal inhibitory concentration (MIC) [1] [µg/mL] | expression signature (MSD Z-score) [2] | expression signature induction upon exposure [2] | transcriptional response [2] | transcriptional response / expression signature [2]
1 | [H]/N=C(/N)N[C@H]1[C@H](O)[C@@H](O)[C@H](O[C@@H]2O[C@@H](C)[C@](O)(C=O)[C@H]2O[C@@H]2O[C@@H](CO)[C@H](O)[C@@H](O)[C@@H]2NC)[C@@H](N/C(N)=N\[H])[C@@H]1O [Streptomycin] | S and R | – | – | – | – | – | – | –
2 | NNC(=O)c1ccncc1 [Isoniazid] | S and R | > 100 | 8 | > 6.4 | resistant signature | no expression signature induction; also recorded: clearly shows induction of an expression signature | failed to elicit a transcriptional response | responds in a susceptible manner; also recorded: susceptible signature
